The values that follow come from patent US6562802B2, “Medical composition and uses thereof” (Noviscens AB, priority 1996, dated 2003).

The test system of one series is UV B radiation. As to the kind of experiment: biological light protection factor against UV B radiation, erythema score on skin of volunteers. Format: in vivo, human. The following applies: 5.0% (w/w) in petrolatum, light exposure for 16 and 32 seconds, two volunteers. As to the method: The biological light protection factor of the sunscreen formulation was determined at two concentrations of the active agent, P-PABA. The two formulations were prepared and tested at a concentration of 5.0% and 10% (w/w). For comparison, one control sunscreen agent was also studied. The UV B protection agent, ethylhexyl-4-dimethylaminobenzoic acid (EHD-PABA) was prepared at a concentration of 5.0% (w/w) in petrolatum. The test was performed on the skin of two volunteers, under standardized conditions by application of 0.1 ml of the formulation per 100 cm^2 of skin area on their backs.
An Osram Ultravitalux lamp was used as light source. The light protection factor was determined and compared to vehicle and untreated skin after light exposure on cylindrical (1.0 cm i.d.) skin areas for 16 and 32 seconds. The results were evaluated from intensity of the erythema score (FIG. 8; A) untreated control, b) 10% P-PABA, c) 5% P-PABA, D) vehicle, and E) EHD-PABA. Light exposure as indicated on each skin area for 16 seconds (left) and 32 seconds (right)). The biological protection against UV B radiation obtained by the UV B standard EHD-PABA absorber was almost similar to the protection by the polymeric P-PABA derivative.

The nature of series [1]: sunscreen index according to Kumler (UV absorbing characteristics). Format: physicochemical.

In the case of `CCCCC(CC)COC(=O)c1ccc(N(C)C)cc1` (stereo not shown) [EHD-PABA, ethylhexyl-4-dimethylaminobenzoic acid], the “protection against UV B radiation (erythema score)” value in the series on UV B radiation was “insufficient at 32 seconds in one of the volunteers”.

`Nc1ccc(C(=O)O)cc1` [p-aminobenzoic acid (reference), p-aminobenzoic acid] had a Sunscreen index in series [1] of 7.4.

For the compound PE-N-aminobenzoic acid [P-PABA], in series [1], the Sunscreen index is listed as 6.2. Moreover, the “protection against UV B radiation (erythema score)” value in the series with UV B radiation is given as “complete”.
